{
  "source": "patent US20140199760A1",
  "about": "“PLANTS HAVING ENHANCED ABIOTIC STRESS RESISTANCE” (UNIVERSITY OF TORONTO, priority 2011, published 2014)",
  "key": {"[1]": {"test_system": "canola (Westar cultivar)", "test": "Drought treatment of canola with BRZ added to soil; water loss per final shoot dry weight", "format": "in vivo"}, "[2]": {"test_system": "corn (B73 cultivar)", "test": "Drought treatment of corn with BRZ added to soil; water loss per final shoot dry weight", "format": "in vivo", "source_text": "(§1) FIG. 2. (A) Soil water content of wild-type Columbia (red), era1-2 (green), and line cyp85a2 (blue) during a drought treatment. […] Error bars represent standard error (n=8). (B) Water loss during the first 9 days of drought treatment divided by the final shoot dry weight (SDW) in wild-type Columbia, era1-2, and line cyp85a2. Error bars represent standard error (n=6). (C) Cold stress treatment. […]\n(§2) Soil (20:20:20), prepared that day, was consistently weighed into pots (typically 140 g) and covered with a plastic wrap (GLAD Press'n Seal® Wrap) that had been punctured with a small hole in the centre. […] This was typically done by withholding water for 9 days after which shoot biomass was harvested and fresh weight was determined. Shoots were then dried at 60 C for 3 days and dry weight was determined. […]\n(§3) The observation that a deficiency in endogenous BL in cyp85a2 enables drought resistance to Arabidopsis prompted the hypothesis that a similar mechanism might exist in other plant species, such as corn, soybean, and canola. […] Immediately […] the start of the experiment, daily measurements of water use were monitored to quantify the rate of water loss. […]"}, "[3]": {"test_system": "soybean (OAC Wallace cultivar)", "test": "Drought treatment of soybean with BRZ added to soil; water loss per final shoot dry weight", "format": "in vivo", "source_text": "as §1, §2, §3"}, "[4]": {"test_system": "bean crop", "details": "applied brassinolide; cited from earlier work"}, "[5]": {"details": "10 μM final concentration in soil, root uptake, 4 day drought, vs untreated controls"}},
  "data": [
    {"compound": "CC(O)(c1ccccc1)C(Cc1ccc(Cl)cc1)n1cncn1", "note": "(stereo not shown) [BRZ, Brassinazole]", "values": [
      {"measurement": "water use efficiency improved", "setting": "[1]; [5]", "value": 15, "unit": "%"},
      {"measurement": "water loss per unit of shoot weight than that of the untreated controls", "setting": "[1]; 10 μM final, drought, P<0.05", "value": "significantly less"},
      {"measurement": "water use efficiency improved", "setting": "[2]; 20 μM final concentration in soil, root uptake, 3.5 day drought, vs untreated controls", "value": 28, "unit": "%"},
      {"measurement": "water loss per unit of shoot weight than that of the untreated controls", "setting": "[2]; 20 μM final, drought, P<0.05", "value": "significantly less"},
      {"measurement": "water use efficiency improved", "setting": "[3]; [5]", "value": 14, "unit": "%"},
      {"measurement": "water loss per unit of shoot weight than that of the untreated controls", "setting": "[3]; 10 μM final, drought, P<0.05", "value": "significantly less"}
    ]},
    {"compound": "CC(C)[C@H](C)[C@@H](O)[C@H](O)[C@@H](C)[C@H]1CC[C@H]2[C@@H]3COC(=O)[C@H]4C[C@H](O)[C@H](O)C[C@]4(C)[C@H]3CC[C@]12C", "note": "[brassinolide, Brassinolide]", "values": [
      {"measurement": "increase bean crop yield", "setting": "[4]", "value": "approximately 45%"}
    ]}
  ]
}
